Inhibition in vivo data for 7 molecules are collected here from US6846953B1, “Aromatic amides” (Warner Lambert Company, priority 1999, dated 2005).

For assay [1], the system named is Carrageenin induced thermal hyperalgesia in the rat. Briefly: Carrageenin induced hyperalgesia, rat paw pressure test. It counts as in vivo. The note with it: po, 30 mg/kg p.o., 2 h post dose, MPE = maximum possible effect, baseline value prior to carrageenin. As for the experimental part: (§1) In another test, compounds were evaluated for their ability to reduce the hyperalgesia effects of carrageenin in the following assay: nociceptive pressure thresholds were measured in the rat paw pressure test using an analgesimeter (Randall L. O. and Selitto J. J., A method for measurement of analgesic activity on inflamed tissue. Arch. Int. Pharmacodyn 4: 409-419, 1957). Male Sprague-Dawley rats (70-90 g) were trained on this apparatus before the test day. Pressure was gradually applied to the hind paw of each rat Nociceptive thresholds were determined as the pressure (g) required to elicit paw withdrawal. A cutoff point of 250 g was used to prevent any tissue damage to the paw. On the test day, 2 to 3 baseline measurements were taken before animals were administered 100 μl of 2% aqueous carrageenin by intraplantar injection into the right hind paw. […]
(The carrageenan paw model is a standard test of acute inflammation.)

Assay [2] relates to Carrageenin induced hyperalgesia in the rat. Described as above. It counts as in vivo. The conditions noted are these: po, 30 mg/kg p.o., 1 h post dose, MPE = maximum possible effect, baseline value prior to carrageenin. Here is the method: as §1

SMILES strings stand for the structures.

The inhibition in vivo is the relative decrease from the control value, in per cent. Take `CCC(=O)N(CCN(CC)CC)c1ccc(Br)c2ccccc12` [Example 3, N-Propionyl, N-(2-Diethylaminoethyl)-1-amino-4-bromonaphthalene]: the figures for the inhibition in vivo at 30 mg/kg in assay [1] and in assay [2] were 7.7% and -2.6%, respectively.
As for `CCC(=O)N(CCN(CC)CC)c1ccc(Cl)c2ccccc12` [Example 1, N-Propionyl, N-(2-Diethylaminoethyl)-1-amino-4-chloronaphthalene], the figures for the inhibition in vivo at 30 mg/kg in assay [1] and in assay [2] were 22.2% and 51.5%, respectively.
For the molecule `CCC(=O)N(CCN(CC)CC)c1cccc2c1-c1ccccc1C2=O` [Example 2, N-Propionyl, N-(2-Diethylaminoethyl)-4-amino-9-fluorenone], the results for the inhibition in vivo at 30 mg/kg in assay [1] and in assay [2] were 6.4% and 1.1%, respectively.
Turning to `CCC(=O)N(CCN1CCOCC1)c1ccc(Cl)c2ccccc12` [Example 4], the inhibition in vivo at 30 mg/kg in assay [1] was determined as 30.7%; in assay [2], 44.8%.
Regarding `CCC(=O)N(CCNCc1ccccc1)c1cccc2ccccc12` [Example 12, N-Propionyl, N-(2-(N-benzyl)-aminoethyl)-1-aminonaphthalene], the inhibition in vivo at 30 mg/kg in assay [1] stood at 3.13%; in assay [2], 29.7%.
As to `C=CC(=O)N(CCN(CC)CC)c1ccc(Cl)c2ccccc12` [Example 14, N-Acryloyl, N-(2-Diethylaminoethyl)-1-amino-4-chloronaphthalene], the inhibition in vivo at 30 mg/kg is 0.9% in assay [1] and 15.1% in assay [2].
Taken in the same sequence, the figures for `CCC(=O)N(c1ccc(Cl)c2ccccc12)C(C)CN(CC)CC` (centres unmarked) [Example 5, N-Propionyl, N-(2-(3-diethylamino-propyl))-1-amino-4-chloronaphthalene] were 27.5% and 23.3%.
